Data set [1] in a line: Penetration of the blood-brain barrier: plasma and brain concentrations after a single oral dose. It counts as in vivo, Male CD-1 mice. To be noted: mice, single dose 100 mg/kg oral gavage. As for the experimental part:
The compound of Formula I was tested to determine bioavalability in tissues of the brain and CNS.
Male CD-1 mice (N=3/group) received a single dose of lapatinib or the compound of Formula I at 100 mg/kg via oral gavage. Animals were not food fasted prior to dosing. Dose volumes were calculated based on the animals' body weights measured before the study.
Plasma and tissue samples were collected 1, 4, 8 and 24 hours post dose (4 time-points/group, and 3 animals/time-point). Whole blood samples were collected into a Na heparin containing tube. Within 30 minutes of collection, the samples were centrifuged at approximately 3,000×g for 10 minutes at 2 to 8° C. to obtain plasma. The plasma samples were divided into 2 aliquots by transferring into 2 cryogenic vials and stored in a freezer at −75±15° C. prior to analysis. Tissues were collected after the blood was collected. Tissues (brain, liver and kidneys) were washed with ice-cold PBS, and the weight was measured and recorded. Each tissue was transferred into a glass vial and stored in a freezer at −75±15° C. prior to sample analysis.

Data set [2] is described as follows: Penetration of the blood-brain barrier by quantitative whole body autoradiography. To be noted: rats. It counts as in vivo, Lister Hooded partially pigmented male rats. As for the experimental part: The compound of Formula 1 was tested to determine bio-distribution in tissues of the brain and CNS.
Lister Hooded partially pigmented male rats (N=1 rat per time point) received a single dose of the compound of Formula 1 at 30 mg/kg body weight (^14C labeled, 3.7 MBq/kg body weight) via oral gavage. Animals were not fasted prior to dosing.
Six rats (age 8-10 weeks old) were administered a single oral dose of [^14C]-labeled Formula 1; total dose of 30 mg/kg and a total radioactivity dose of 3.7 MBq/kg (100 μCi/kg). One rat/time point was euthanized by CO2 overdose at each of the following times after dose administration: 1, 6, 24, 72, 120 and 168 hours, followed by immediate snap freezing in hexane/solid CO2, subsequent freezing at −20° C., followed by whole-body autoradiography.

Data set [3] has as its system GL261-luc2 luciferase expressing cells. The data set is described as follows: Efficacy alone or in combination with irradiation in an intracranial glioma model in mice. The class given is in vivo, C57BL/6 albino female mice. The following applies: 70 mg/kg once daily, 5 days on/2 days off, oral gavage, FIG. 2. As for the experimental part:
The compound of Formula 1 was tested to determine antitumor effects when tumors are growing in the brain. GL261-luc2 luciferase expressing cells were implanted intracranially (2 mm right lateral and 1 mm anterior from Bregma, 2-3 mm down from burr hole) into C57BL/6 albino female mice (N=14 per treatment group). Beginning 8 days after cell injection, mice received vehicle or the compound of Formula I at 70 mg/kg body weight (once daily, 5 days on/2 days off schedule) via oral gavage, with or without head-only irradiation (once daily for 5 days). Tumor burden in the brain was evaluated utilizing bioluminescence.

For data set [4] the following is noted: comparator in FIG. 1, 100 mg/kg oral gavage in mice; cited from earlier work.

Molecules are shown by their SMILES.

As to `COc1cc2c(Nc3ccc(Cl)c(Cl)c3F)ncnc2cc1OCC1C[C@@H]2CN(C)C[C@@H]2C1` (stereo partly drawn) [Formula 1, N-(3,4-dichloro-2-fluorophenyl)-7-({[(3aR,6aS)-2-methyloctahydrocyclopenta[c]pyrrol-5-yl]methyl}oxy)-6-(methyloxy)quinazolin-4-amine], the “Concentration observed in CNS tissue compared with blood” value in data set [1] (FIG. 1) is listed as “substantially higher”. Further, the “Time for which the CNS tissue concentration remained higher than in blood” value in data set [1] (duration of the assay) was “at least 24 hours”. The “Crossing of the blood brain barrier / concentrations in CNS and brain tissue” value in data set [1] (samples 1, 4, 8 and 24 hours post dose, FIG. 1) was “crossed the blood brain barrier and attained high concentrations in CNS and brain tissue”. For the same molecule, the “Concentrations of radioactivity in brain compared with blood” value in data set [2] (single oral dose 30 mg/kg 14C labeled (3.7 MBq/kg), at 6 and 24 hours after dosing) was “comparable to that in blood”. In data set [2] (single oral dose 30 mg/kg 14C labeled, whole-body autoradiography), the “Penetration of the blood brain barrier” value was “good penetration of the blood brain barrier”. Moreover, the “Growth of glioma tumors in the brain (tumor burden by bioluminescence)” value in data set [3] (from 8 days after cell injection, alone) is “reduced the growth of glioma tumors in the brain”. Moreover, the “Anti-tumor effects of irradiation on tumors in the brain (tumor burden by bioluminescence)” value in data set [3] (with head-only irradiation once daily for 5 days) is “increased the anti-tumor effects of irradiation on tumors in the brain”.
Take `CS(=O)(=O)CCNCc1ccc(-c2ccc3ncnc(Nc4ccc(OCc5cccc(F)c5)c(Cl)c4)c3c2)o1` [lapatinib]: the “Crossing of the blood-brain barrier (comparator, as stated in legend of FIG. 1)” value in data set [4] is “does not cross the blood-brain barrier”.

Source of the values: patent publication US10080752B2, “Treatment of brain and central nervous system tumors” (KADMON CORPORATION LLC, priority 2014, dated 2018).
